For the assay, the system named is IFN-a/Jak1 Tyk2. Put plainly: Co-stimulation assay in lysed whole blood: IFNa (JAK1/TYK2) stimulated STAT1 phosphorylation. The settings on record: 100 ng/mL IFNa (with 10 ng/mL GM-CSF), pSTAT by flow cytometry. It is filed as cell-based. The essentials: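 Lysed human whole blood (RBC-lysed, resuspended in cRPMI) pre-incubated with compound 1 h at 37 °C, then stimulated 20 min with IFNa 100 ng/mL plus GM-CSF 10 ng/mL (final). Fixed, permeabilised, stained for pSTAT1 (PE) and pSTAT5 (AF488); flow cytometry read-out, ≥5,000–10,000 cells acquired.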

pIC50: −log10 of the molar value.

For the molecule `CNc1cc(Nc2cc(C#N)cc3c2OCCO3)nc2c(NC(=O)NC3CCC3)cnn12` [Compound 106, 1-(5-((7-cyano-2,3-dihydrobenzo[b][1,4]dioxin-5-yl)amino)-7-(methylamino)pyrazolo[1,5-a]pyrimidin-3-yl)-3-cyclobutylurea], where the note is “Homo sapiens, 20 min”, the negative logarithm of the IC50 (pIC50) was 5.00 to 6.00.
`CNC(=O)Nc1cnn2c(NC)cc(-c3cn(C4COC4)c4ncccc34)nc12` [Compound 86, 1-methyl-3-(7-(methylamino)-5-(1-(oxetan-3-yl)-1H-pyrrolo[2,3-b]pyridin-3-yl)pyrazolo[1,5-a]pyrimidin-3-yl)urea] showed a pIC50 (Homo sapiens, 20 min) of 5.00 to 6.00.
The same measure, in the same setting: the value for `C#Cc1cc(Nc2cc(NC)n3ncc(NC(=O)NC)c3n2)c2c(c1)OCCO2` [Compound 109, 1-(5-((7-ethynyl-2,3-dihydrobenzo[b][1,4]dioxin-5-yl)amino)-7-(methylamino)pyrazolo[1,5-a]pyrimidin-3-yl)-3-methylurea] was above 6.00; that for `CNc1cc(Nc2cc(F)cc3c2OCCO3)nc2c(NC(=O)NCC(F)F)cnn12` [Compound 133, 1-(2,2-difluoroethyl)-3-(5-((7-fluoro-2,3-dihydrobenzo[b][1,4]dioxin-5-yl)amino)-7-(methylamino)pyrazolo[1,5-a]pyrimidin-3-yl)urea] was 5.00 to 6.00.
Molecule `[2H]C([2H])([2H])NC(=O)Nc1cnn2c(NC)cc(Nc3cccc4c3OCCO4)nc12` [Compound 144, 1-(5-((2,3-dihydrobenzo[b][1,4]dioxin-5-yl)amino)-7-(methylamino)pyrazolo[1,5-a]pyrimidin-3-yl)-3-(methyl-d3)urea] gave a pIC50 (Homo sapiens, 20 min) above 6.00.
`C#C[C@H](C)NC(=O)Nc1cnn2c(NC)cc(Nc3cccc4c3OCCO4)nc12` [Compound 123, (S)-1-(but-3-yn-2-yl)-3-(5-((2,3-dihydrobenzo[b][1,4]dioxin-5-yl)amino)-7-(methylamino)pyrazolo[1,5-a]pyrimidin-3-yl)urea] gave a pIC50 (Homo sapiens, 20 min) above 6.00.
Same read-out and setting: then `CNc1cc(Nc2cccc3c2OCCO3)nc2c(NC(=O)NC3CC(CO)C3)cnn12` (stereo not shown) [Compound 47, 1-(5-((2,3-dihydrobenzo[b][1,4]dioxin-5-yl)amino)-7-(methylamino)pyrazolo[1,5-a]pyrimidin-3-yl)-3-(3-(hydroxymethyl)cyclobutyl)urea], with above 6.00.
The same measure, in the same setting: the value for `CNC(=O)Nc1cnn2c(NC)cc(Nc3cc(F)cc4c3OCCO4)nc12` [Compound 65, 1-(5-((7-fluoro-2,3-dihydrobenzo[b][1,4]dioxin-5-yl)amino)-7-(methylamino)pyrazolo[1,5-a]pyrimidin-3-yl)-3-methylurea] was above 6.00.
As to `CNC(=O)Nc1cnn2c(NC)cc(Nc3cccc4c3OC(C)(C)O4)nc12` [Compound 116, 1-(5-((2,2-dimethylbenzo[d][1,3]dioxol-4-yl)amino)-7-(methylamino)pyrazolo[1,5-a]pyrimidin-3-yl)-3-methylurea], the pIC50 (Homo sapiens, 20 min) is 5.00 to 6.00.
`CNC(=O)Nc1cnn2c(NC)cc(Nc3cccn(-c4ccc(OC)nn4)c3=O)nc12` [Compound 17, 1-(5-((1-(6-methoxypyridazin-3-yl)-2-oxo-1,2-dihydropyridin-3-yl)amino)-7-(methylamino)pyrazolo[1,5-a]pyrimidin-3-yl)-3-methylurea] showed a pIC50 (Homo sapiens, 20 min) of 5.00 to 6.00.
On the same count and under the same terms, the value for `CNc1cc(Nc2cccc3c2OCCO3)nc2c(NC(=O)NC(C)C)cnn12` [Compound 148, 1-(5-((2,3-dihydrobenzo[b][1,4]dioxin-5-yl)amino)-7-(methylamino)pyrazolo[1,5-a]pyrimidin-3-yl)-3-isopropylurea] was above 6.00.
Same read-out and setting: the value for `CNC(=O)Nc1cnn2c(NC)cc(Nc3cc(C)cc4c3OCCO4)nc12` [Compound 78, 1-methyl-3-(5-((7-methyl-2,3-dihydrobenzo[b][1,4]dioxin-5-yl)amino)-7-(methylamino)pyrazolo[1,5-a]pyrimidin-3-yl)urea] was above 6.00; that for `CNc1cc(Nc2cc(OC)cc3c2OCCO3)nc2c(NC(=O)NC3CC3)cnn12` [Compound 84, 1-cyclopropyl-3-(5-((7-methoxy-2,3-dihydrobenzo[b][1,4]dioxin-5-yl)amino)-7-(methylamino)pyrazolo[1,5-a]pyrimidin-3-yl)urea] was 5.00 to 6.00.
On the same count and under the same terms, then `CNC(=O)Nc1cnn2c(NC)cc(Nc3ccccc3-c3ccccc3)nc12` [Compound 165, 1-(5-([1,1′-biphenyl]-2-ylamino)-7-(methylamino)pyrazolo[1,5-a]pyrimidin-3-yl)-3-methylurea], with at most 5.00.
Turning to `CNc1cc(Nc2cc(F)cc3c2OCCO3)nc2c(NC(=O)NC3CCC3)cnn12` [Compound 105, 1-cyclobutyl-3-(5-((7-fluoro-2,3-dihydrobenzo[b][1,4]dioxin-5-yl)amino)-7-(methylamino)pyrazolo[1,5-a]pyrimidin-3-yl)urea], the pIC50 (Homo sapiens, 20 min) is above 6.00.
Regarding `CNC(=O)Nc1cnn2c(NC)cc(Nc3c(F)cccc3F)nc12` [Compound 90, 1-(5-((2,6-difluorophenyl)amino)-7-(methylamino)pyrazolo[1,5-a]pyrimidin-3-yl)-3-methylurea], where the note is “Homo sapiens, 20 min”, the pIC50 was 5.00 to 6.00.
On the same count and under the same terms, the value for `CNc1cc(Nc2cc(F)cc3c2OCCO3)nc2c(NC(=O)NCCOC)cnn12` [Compound 113, 1-(5-((7-fluoro-2,3-dihydrobenzo[b][1,4]dioxin-5-yl)amino)-7-(methylamino)pyrazolo[1,5-a]pyrimidin-3-yl)-3-(2-methoxyethyl)urea] was above 6.00; that for `CNc1cc(Nc2cccc3c2OCCO3)nc2c(NC(=O)NCCO)cnn12` [Compound 145, 1-(5-((2,3-dihydrobenzo[b][1,4]dioxin-5-yl)amino)-7-(methylamino)pyrazolo[1,5-a]pyrimidin-3-yl)-3-(2-hydroxyethyl)urea] was 5.00 to 6.00; that for `CNc1cc(Nc2cccc3c2OCCO3)nc2c(NC(=O)NC3CC3O)cnn12` (stereo not shown) [Compound 32, 1-(5-((2,3-dihydrobenzo[b][1,4]dioxin-5-yl)amino)-7-(methylamino)pyrazolo[1,5-a]pyrimidin-3-yl)-3-(2-hydroxycyclopropyl)urea] was at most 5.00.
`CNc1c(F)c(Nc2cccc3c2OCCO3)nc2c(NC(=O)N[C@@H]3C[C@@H]3F)cnn12` [Compound 55, 1-(5-((2,3-dihydrobenzo[b][1,4]dioxin-5-yl)amino)-6-fluoro-7-(methylamino)pyrazolo[1,5-a]pyrimidin-3-yl)-3-((1R,2S)-2-fluorocyclopropyl)urea]: the pIC50 (Homo sapiens, 20 min) is at most 5.00.
`CNc1cc(Nc2cccc3nccnc23)nc2c(NC(=O)N[C@@H]3C[C@@H]3F)cnn12` [Compound 44, 1-((1R,2S)-2-fluorocyclopropyl)-3-(7-(methylamino)-5-(quinoxalin-5-ylamino)pyrazolo[1,5-a]pyrimidin-3-yl)urea] gave a pIC50 (Homo sapiens, 20 min) above 6.00.
The same measure, in the same setting: the value for `CNC(=O)Nc1cnn2c(NC)cc(Nc3cccc4c3OCCCO4)nc12` [Compound 169, 1-(5-((3,4-dihydro-2H-benzo[b][1,4]dioxepin-6-yl)amino)-7-(methylamino)pyrazolo[1,5-a]pyrimidin-3-yl)-3-methylurea] was above 6.00; that for `CNC(=O)Nc1cnn2c(NC)cc(Nc3ccc(OC)cc3)nc12` [Compound 151, 1-(5-((4-methoxyphenyl)amino)-7-(methylamino)pyrazolo[1,5-a]pyrimidin-3-yl)-3-methylurea] was 5.00 to 6.00.
The same measure, in the same setting: the value for `CNc1cc(Nc2cccc3c2OCCO3)nc2c(NC(=O)NCC(F)(F)F)cnn12` [Compound 99, 1-(5-((2,3-dihydrobenzo[b][1,4]dioxin-5-yl)amino)-7-(methylamino)pyrazolo[1,5-a]pyrimidin-3-yl)-3-(2,2,2-trifluoroethyl)urea] was above 6.00.
Same read-out and setting: then `CNc1cc(Nc2c(F)c(F)cc(F)c2F)nc2c(NC(=O)N[C@@H]3C[C@@H]3F)cnn12` [Compound 38, 1-((1R,2S)-2-fluorocyclopropyl)-3-(7-(methylamino)-5-((2,3,5,6-tetrafluorophenyl)amino)pyrazolo [1,5-a]pyrimidin-3-yl)urea], with 5.00 to 6.00; and `[2H]C([2H])([2H])Nc1cc(Nc2cccc3c2OCCO3)nc2c(NC(=O)NC)cnn12` [Compound 13, 1-(5-((2,3-dihydrobenzo[b][1,4]dioxin-5-yl)amino)-7-((methyl-d3)amino)pyrazolo[1,5-a]pyrimidin-3-yl)-3-methylurea], with above 6.00.
On to `CNC(=O)Nc1cnn2c(NC)cc(Nc3ccnc4c3OCCO4)nc12` [Compound 92, 1-(5-((2,3-dihydro-[1,4]dioxino[2,3-b]pyridin-8-yl)amino)-7-(methylamino)pyrazolo[1,5-a]pyrimidin-3-yl)-3-methylurea], for which the pIC50 (Homo sapiens, 20 min) was 5.00 to 6.00.
The molecule `CNC(=O)Nc1cnn2c(NC)cc(Nc3ccccc3Oc3ccccc3)nc12` [Compound 161, 1-methyl-3-(7-(methylamino)-5-((2-phenoxyphenyl)amino)pyrazolo[1,5-a]pyrimidin-3-yl)urea] gave a pIC50 (Homo sapiens, 20 min) of 5.00 to 6.00.
For the molecule `CNc1cc(Nc2c(F)ccc3c2OCCO3)nc2c(NC(=O)NCC#N)cnn12` [Compound 174, 1-(cyanomethyl)-3-(5-((6-fluoro-2,3-dihydrobenzo[b][1,4]dioxin-5-yl)amino)-7-(methylamino)pyrazolo[1,5-a]pyrimidin-3-yl)urea], where the note is “lysed human whole blood, 20 minutes”, the pIC50 is at most 5.00.
In turn, `CNc1cc(Nc2cccc3c2OCCO3)nc2c(NC(=O)NC3CC3)cnn12` [Compound 139, 1-cyclopropyl-3-(5-((2,3-dihydrobenzo[b][1,4]dioxin-5-yl)amino)-7-(methylamino)pyrazolo[1,5-a]pyrimidin-3-yl)urea] had a pIC50 (Homo sapiens, 20 min) above 6.00.
`CNc1cc(Nc2cccc3c2OCCO3)nc2c(NC(=O)NC3CC(O)C3)cnn12` (stereo not shown) [Compound 29, 1-(5-((2,3-dihydrobenzo[b][1,4]dioxin-5-yl)amino)-7-(methylamino)pyrazolo[1,5-a]pyrimidin-3-yl)-3-(3-hydroxycylcobutyl)urea] showed a pIC50 (Homo sapiens, 20 min) of 5.00 to 6.00.

The values are drawn from patent US11753411B2, “Substituted pyrazolo[1,5-a]pyrimidines as TYK2 pseudokinase ligands” (Ventyx Biosciences, Inc., priority 2019, dated 2023).
